Experimental data published in patent US8163724B2, “Glucocorticosteroids, processes for their preparation, pharmaceutical compositions containing them and their use in therapy” (AstraZeneca AB, priority 2007, dated 2012).

These molecules were tested against T1, recombinant human GR (Homo sapiens, UniProt P04150) (assay: Human Glucocorticoid Receptor (GR) Assay (fluorescence polarization, Panvera/Invitrogen kit)). Conditions: fluorescence polarization; GS Red tracer; 2 hours at room temperature; 100% control 10 μM Dexamethasone; read-out: Inhibition of GR binding, IC50.
T1 construct: purchased Panvera/Invitrogen P2812 (kit P2893)
T1 sequence (P04150 1-777): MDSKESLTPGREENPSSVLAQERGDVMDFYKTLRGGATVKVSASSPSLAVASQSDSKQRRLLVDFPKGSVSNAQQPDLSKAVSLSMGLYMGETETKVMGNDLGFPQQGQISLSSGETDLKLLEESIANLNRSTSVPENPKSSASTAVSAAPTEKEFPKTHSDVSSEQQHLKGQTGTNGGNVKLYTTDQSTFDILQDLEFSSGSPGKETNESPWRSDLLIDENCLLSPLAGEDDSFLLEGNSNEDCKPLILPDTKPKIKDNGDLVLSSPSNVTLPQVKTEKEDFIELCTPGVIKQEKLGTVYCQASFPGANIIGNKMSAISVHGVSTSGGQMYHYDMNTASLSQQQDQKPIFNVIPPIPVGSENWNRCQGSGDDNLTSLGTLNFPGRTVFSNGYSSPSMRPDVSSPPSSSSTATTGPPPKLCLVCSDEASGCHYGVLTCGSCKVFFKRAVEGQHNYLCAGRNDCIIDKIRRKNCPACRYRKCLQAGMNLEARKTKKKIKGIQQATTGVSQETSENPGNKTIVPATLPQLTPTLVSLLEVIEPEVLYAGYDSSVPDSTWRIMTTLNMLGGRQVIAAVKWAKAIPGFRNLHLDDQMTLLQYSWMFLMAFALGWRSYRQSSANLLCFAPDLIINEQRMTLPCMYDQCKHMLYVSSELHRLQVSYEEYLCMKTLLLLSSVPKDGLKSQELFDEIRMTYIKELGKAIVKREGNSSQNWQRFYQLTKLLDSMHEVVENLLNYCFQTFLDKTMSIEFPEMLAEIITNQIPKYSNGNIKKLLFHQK
Format: binding
Protocol: Human Glucocorticoid Receptor (GR) Assay
The assay is based on a commercial kit from Panvera/Invitrogen (Part number P2893). The assay technology is fluorescence polarization. […] The GR and Stabilizing Peptide reagents are stored at −70° C. while the GS Red is stored at −20° C. Also included in the kit are 1M DTT (Panvera, Part number P2325, stored at −20° C.) and GR Screening buffer 10× (Panvera, Part number P2814, stored at −70° C. initially but once thawed stored at room temperature). Avoid repeated freeze/thaws for all reagents. The GR Screening buffer 10× comprises 100 mM potassium phosphate, 200 mM sodium molybdate, 1 mM EDTA and 20% DMSO.
0% control was 100% DMSO and 100% control was 10 μM Dexamethasone. Background solution (8 μL; assay buffer 10×, Stabilizing Peptide, DTT and ice cold MQ water) was added to the background wells. GS Red solution (7 μL; assay buffer 10×, Stabilizing Peptide, DTT, GS Red and ice cold water) was added to all wells except background wells. GR solution (7 μL; assay buffer 10×, Stabilizing Peptide, DTT, GR and ice cold water) was added to all wells. The plate was sealed and incubated in a dark at room temperature for 2 hours.

Question: `CCC(=O)O[C@]1(C(=O)SCC(N)=O)CC[C@H]2[C@@H]3CCC4=Cc5c(cnn5-c5ccc(F)cc5)C[C@]4(C)[C@H]3[C@@H](O)C[C@@]21C` [Example 13, (1R,3aS,3bS,10aR,10bS,11S,12aS)-{[(2-Amino-2-oxoethyl)thio]carbonyl}-7-(4-fluorophenyl)-11-hydroxy-10a,12a-dimethyl-1,2,3,3a,3b,4,5,7,10,10a,10b,11,12,12a-tetradecahydrocyclopenta[5,6]naphtho[1,2-f]indazol-1-yl propanoate] was tested. Which IC50 did it give?
Answer: 3.1 nM

Question: `CCC(=O)O[C@]1(C(=O)SCOC)CC[C@H]2[C@@H]3CCC4=Cc5c(cnn5-c5ccc(F)cc5)C[C@]4(C)[C@H]3[C@@H](O)C[C@@]21C` [Example 14, (1R,3aS,3bS,10aR,10bS,11S,12aS)-7-(4-Fluorophenyl)-11-hydroxy-{[(methoxy-methyl)thio]carbonyl}-10a,12a-dimethyl-1,2,3,3a,3b,4,5,7,10,10a,10b,11,12,12a-tetradecahydrocyclopenta[5,6]naphtho[1,2-f]indazol-1-yl propanoate] was tested. Which IC50 did it give?
Answer: 3.6 nM

Question: `CCC(=O)O[C@]1(C(=O)SCCO)CC[C@H]2[C@@H]3CCC4=Cc5c(cnn5-c5ccc(F)cc5)C[C@]4(C)[C@H]3[C@@H](O)C[C@@]21C` [Example 15, (1R,3aS,3bS,10aR,10bS,11S,12aS)-7-(4-Fluorophenyl)-11-hydroxy-1-{[(2-hydroxyethyl)thio]carbonyl}-10a,12a-dimethyl-1,2,3,3a,3b,4,5,7,10,10a,10b,11,12,12a-tetradecahydropcyclopenta[5,6]naphtho[1,2-f]indazol-1-yl propanoate] was tested. Which IC50 did it give?
Answer: 3.7 nM

Question: Which IC50 does the source give for `CCC(=O)O[C@]1(C(=O)SCCC#N)CC[C@H]2[C@@H]3CCC4=Cc5c(cnn5-c5ccc(F)cc5)C[C@]4(C)[C@H]3[C@@H](O)C[C@@]21C` [Example 16, (1R,3aS,3bS,10aR,10bS,11S,12aS)-{[(2-Cyanoethyl)thio]carbonyl}-7-(4-fluoro-phenyl)-11-hydroxy-10a,12a-dimethyl-1,2,3,3a,3b,4,5,7,10,10a,10b,11,12,12a-tetradecahydrocyclopenta[5,6]naphtho[1,2-f]indazol-1-yl propanoate] here?
Answer: 3.4 nM

Question: `CCC(=O)O[C@]1(C(=O)SCC(C)=O)CC[C@H]2[C@@H]3CCC4=Cc5c(cnn5-c5ccc(F)cc5)C[C@]4(C)[C@H]3[C@@H](O)C[C@@]21C` [Example 17, (1R,3aS,3bS,10aR,10bS,11S,12aS)-7-(4-Fluorophenyl)-11-hydroxy-10a,12a-dimethyl-1-{[(2-oxopropyl)thio]carbonyl}-1,2,3,3a,3b,4,5,7,10,10a,10b,11,12,12a-tetradecaphydrocyclopenta[5,6]naphtho[1,2-f]indazol-1-yl propanoate] was tested. Which IC50 did it give?
Answer: 4.8 nM

Question: Which IC50 does the source give for `CCC(=O)O[C@]1(C(=O)SCC#CCO)CC[C@H]2[C@@H]3CCC4=Cc5c(cnn5-c5ccc(F)cc5)C[C@]4(C)[C@H]3[C@@H](O)C[C@@]21C` [Example 18, (1R,3aS,3bS,10aR,10bS,11S,12aS)-7-(4-Fluorophenyl)-11-hydroxy-1-{[(4-hydroxy-but-2-yn-1-yl)thio]carbonyl}-10a,12a-dimethyl-1,2,3,3a,3b,4,5,7,10,10a,10b,11,12,12a-tetradecahydrocyclopenta[5,6]naphtho[1,2-f]indazol-1-yl propanoate] here?
Answer: 4.1 nM

Question: With `CCC(=O)O[C@]1(C(=O)SCF)CC[C@H]2[C@@H]3CCC4=Cc5c(cnn5-c5ccc(F)cc5)C[C@]4(C)[C@H]3[C@@H](O)C[C@@]21C` [Example 19, (1R,3aS,3bS,10aR,10bS,11S,12aS)-1-{[(Fluoromethyl)thio]carbonyl}-7-(4-fluoro-phenyl)-11-hydroxy-10a,12a-dimethyl-1,2,3,3a,3b,4,5,7,10,10a,10b,11,12,12a-tetradecahydrocyclopenta[5,6]naphtho[1,2-f]indazol-1-yl propanoate] as the molecule, how does the IC50 read?
Answer: 3.7 nM

Question: Which IC50 does the source give for `C#CCSC(=O)[C@@]1(OC(=O)CC)CC[C@H]2[C@@H]3CCC4=Cc5c(cnn5-c5ccc(F)cc5)C[C@]4(C)[C@H]3[C@@H](O)C[C@@]21C` [Example 20, (1R,3aS,3bS,10aR,10bS,11S,12aS)-7-(4-fluorophenyl)-11-hydroxy-10a,12a-dimethyl-1-[(prop-2-yn-1-ylthio)carbonyl]-1,2,3,3a,3b,4,5,7,10,10a,10b,11,12,12a-tetradecaphydrocyclopenta[5,6]naphtho[1,2-f]indazol-1-yl propanoate] here?
Answer: 7.7 nM

Question: How did the IC50 turn out when `CCC(=O)O[C@]1(C(=O)SC)CC[C@H]2[C@@H]3CCC4=Cc5c(cnn5-c5ccc(F)cc5)C[C@]4(C)[C@H]3[C@@H](O)C[C@@]21C` [Example 21, (1R,3aS,3bS,10aR,10bS,11S,12aS)-7-(4-Fluorophenyl)-11-hydroxy-10a,12a-dimethyl-1-[(methylthio)carbonyl]-1,2,3,3a,3b,4,5,7,10,10a,10b,11,12,12a-tetradecahydropcyclopenta[5,6]naphtho[1,2-f]indazol-1-yl propanoate] was run?
Answer: 2.7 nM

Question: For `CCC(=O)O[C@]1(C(=O)SCC(=O)N(C)C)CC[C@H]2[C@@H]3CCC4=Cc5c(cnn5-c5ccc(F)cc5)C[C@]4(C)[C@H]3[C@@H](O)C[C@@]21C` [Example 22, (1R,3aS,3bS,10aR,10bS,11S,12aS)-1-({[2-(Dimethylamino)-2-oxoethyl]thio}carbonyl)-7-(4-fluorophenyl)-11-hydroxy-10a,12a-dimethyl-1,2,3,3a,3b,4,5,7,10,10a,10b,11,12,12a-tetradecahydrocyclopenta[5,6]naphtho[1,2-f]indazol-1-yl propanoate], which IC50 is on record?
Answer: 3.9 nM

Question: For `C=CCSC(=O)[C@@]1(OC(=O)CC)CC[C@H]2[C@@H]3CCC4=Cc5c(cnn5-c5ccc(F)cc5)C[C@]4(C)[C@H]3[C@@H](O)C[C@@]21C` [Example 23, (1R,3aS,3bS,10aR,10bS,11S,12aS)-7-(4-Fluorophenyl)-11-hydroxy-10a,12a-dimethyl-1-[(prop-2-en-1-ylthio)carbonyl]-1,2,3,3a,3b,4,5,7,10,10a,10b,11,12,12a-tetradecahydropcyclopenta[5,6]naphtho[1,2-f]indazol-1-yl propanoate], which IC50 is on record?
Answer: 13 nM

Question: How did the IC50 turn out when `CCC(=O)O[C@]1(C(=O)SCCCO)CC[C@H]2[C@@H]3CCC4=Cc5c(cnn5-c5ccc(F)cc5)C[C@]4(C)[C@H]3[C@@H](O)C[C@@]21C` [Example 24, (1R,3aS,3bS,10aR,10bS,11S,12aS)-7-(4-Fluorophenyl)-11-hydroxy-1-{[(3-hydroxy-propyl)thio]carbonyl}-10a,12a-dimethyl-1,2,3,3a,3b,4,5,7,10,10a,10b,11,12,12a-tetradecahydrocyclopenta[5,6]naphtho[1,2-f]indazol-1-yl propanoate] was run?
Answer: 5.1 nM

Question: How did the IC50 turn out when `CCC(=O)O[C@]1(C(=O)SCC2CC2)CC[C@H]2[C@@H]3CCC4=Cc5c(cnn5-c5ccc(F)cc5)C[C@]4(C)[C@H]3[C@@H](O)C[C@@]21C` [Example 25, (1R,3aS,3bS,10aR,10bS,11S,12aS)-1-{[(Cyclopropylmethyl)thio]carbonyl}-7-(4-fluorophenyl)-11-hydroxy-10a,12a-dimethyl-1,2,3,3a,3b,4,5,7,10,10a,10b,11,12,12a-tetradecahydrocyclopenta[5,6]naphtho[1,2-f]indazol-1-yl propanoate] was run?
Answer: 10 nM
